Source: patent publication US7547804B2, “Compounds, compositions, and methods employing same” (Myriad Genetics, Inc., priority 2002, dated 2009)

test system: LNCaP cell lines; test: WST-1 Cell Proliferation and Viability Assay; assay type: cell-based; details: Homo sapiens; LNCaP cells, compound incubation 18-72 hours
Summary of the method: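 LNCaP cells (5000/well, phenol-red-free RPMI-1640 with 10% FCS) were plated overnight, then exposed to compounds in 0.1% DMSO final for 18-72 hours at 37 °C. Viability was read by WST-1 conversion to formazan after 3 h further incubation, measured at A490-A650.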

Structure (SMILES)	EC50
O=C(Nc1cc(C(F)(F)F)ccc1OCCOc1ccccc1)c1cc(Cl)ccc1O [Compound 297]	0.9 µM
CCOCCOCCOc1ccc(C(F)(F)F)cc1NC(=O)c1cc(Cl)ccc1O [Compound 298]	3 µM
O=C(Nc1cc(C(F)(F)F)ccc1OCCOCCCl)c1cc(Cl)ccc1O [Compound 299]	1 µM
O=C(Nc1cc(C(F)(F)F)ccc1OCCOc1ccc(Cl)cc1)c1cc(Cl)ccc1O [Compound 300]	1 µM
CCCOCCOc1ccc(C(F)(F)F)cc1NC(=O)c1cc(Cl)ccc1O [Compound 301]	0.67 µM
COC(=O)C=Cc1ccccc1CCOc1ccc(Cl)cc1NC(=O)c1cc(Cl)ccc1O [Compound 302]	3 µM
COC(=O)CCc1ccccc1CCOc1ccc(Cl)cc1NC(=O)c1cc(Cl)ccc1O [Compound 303]	3.3 µM
O=C(NCc1cccc(-c2cccc(C(F)(F)F)c2)c1)c1cc(Cl)ccc1O [Compound 304]	18 µM
Cc1ccc(COc2ccc(Cl)cc2NC(=O)c2cc(Cl)ccc2O)cc1 [Compound 306]	2 µM
Cc1cccc(COc2ccc(C(F)(F)F)cc2NC(=O)c2cc(Cl)ccc2O)c1 [Compound 307]	1.8 µM
COC(=O)c1ccc(COc2ccc(C(F)(F)F)cc2NC(=O)c2cc(Cl)ccc2O)cc1 [Compound 308]	0.83 µM
CN1CCN(c2ccc(C(F)(F)F)cc2NC(=O)c2cc(Cl)ccc2O)CC1 [Compound 309]	17.4 µM
Cc1cccc(COc2ccc(Cl)cc2NC(=O)c2cc(Cl)ccc2O)c1 [Compound 311]	3 µM
Cc1ccccc1COc1ccc(C(F)(F)F)cc1NC(=O)c1cc(Cl)ccc1O [Compound 312]	0.85 µM
Cc1ccccc1COc1ccc(Cl)cc1NC(=O)c1cc(Cl)ccc1O [Compound 313]	3 µM
COC(=O)C1CCCN(c2ccc(C(F)(F)F)cc2NC(=O)c2cc(Cl)ccc2O)C1 (stereo not shown) [Compound 315]	1.2 µM
O=C(NCc1ccc(F)c(C(F)(F)F)c1)c1cc(Cl)ccc1O [Compound 319]	17.7 µM
O=C(NCc1cc(F)cc(C(F)(F)F)c1)c1cc(Cl)ccc1O [Compound 320]	17.5 µM
COC(=O)c1ccc(OCCc2ccccc2)c(NC(=O)c2cc(Cl)ccc2O)c1 [Compound 325]	3.3 µM
COC(=O)CCc1ccc(OCCc2ccccc2)c(NC(=O)c2cc(Cl)ccc2O)c1 [Compound 326]	6.2 µM
O=C(Nc1cc(C(F)(F)F)ccc1OCc1cccc(C(F)(F)F)c1)c1cc(Cl)ccc1O [Compound 327]	2.1 µM

Structure (SMILES)	EC50
O=C(Nc1cc(Cl)ccc1OCc1ccc(C(F)(F)F)cc1)c1cc(Cl)ccc1O [Compound 328]	1.6 µM
O=C(Nc1cc(Cl)ccc1OCc1cccc(C(F)(F)F)c1)c1cc(Cl)ccc1O [Compound 329]	2.2 µM
Nc1cc(Cl)cc(C(=O)Nc2cc(Cl)ccc2OCCc2ccccc2)c1O [Compound 330]	19.7 µM
O=CNc1cc(Cl)cc(C(=O)Nc2cc(Cl)ccc2OCCc2ccccc2)c1O [Compound 331]	12.4 µM
Cc1ccc(COc2ccc(C(F)(F)F)cc2NC(=O)c2cc(Cl)ccc2O)cc1 [Compound 332]	0.74 µM
Cc1ccc(OCCc2cccc(C(F)(F)F)c2)cc1NC(=O)c1cc(Cl)ccc1O [Compound 333]	2.6 µM
O=C(Nc1cc(C(F)(F)F)ccc1OCc1cccc(OC(F)(F)F)c1)c1cc(Cl)ccc1O [Compound 334]	9 µM
COc1ccccc1CCOc1cccc(NC(=O)c2cc(-c3ccsc3)ccc2O)c1 [Compound 335]	13 µM
COc1ccccc1CCOc1cccc(NC(=O)c2cc(Cl)cc([N+](=O)[O-])c2O)c1 [Compound 336]	28 µM
COc1ccccc1CCOc1cccc(NC(=O)c2cc(Cl)ccc2NS(C)(=O)=O)c1 [Compound 337]	19 µM
COc1ccccc1CCOc1cccc(NC(=O)c2cc(-c3cccc4ccccc34)ccc2O)c1 [Compound 338]	7 µM
COc1ccccc1CCOc1cccc(NC(=O)c2cc(-c3cc4ccccc4o3)ccc2O)c1 [Compound 339]	8 µM
COc1ccccc1CCOc1cccc(NC(=O)c2cc(-c3ccc(C)cc3)ccc2O)c1 [Compound 340]	16 µM
COc1ccccc1CCOc1cccc(NC(=O)c2cc(-c3ccc(Cl)c(Cl)c3)ccc2O)c1 [Compound 341]	9 µM
COc1ccc(-c2ccc(O)c(C(=O)Nc3cccc(OCCc4ccccc4OC)c3)c2)cc1 [Compound 342]	10 µM
COc1ccccc1CCOc1cccc(NC(=O)c2cc(-c3ccccc3OC)ccc2O)c1 [Compound 343]	17 µM
COc1ccccc1CCOc1cccc(NC(=O)c2cc(-c3ccccc3Oc3ccccc3)ccc2O)c1 [Compound 344]	16 µM
COc1ccccc1CCOc1cccc(NC(=O)c2cc(-c3cccc(C(C)C)c3)ccc2O)c1 [Compound 345]	9 µM
COc1ccccc1CCOc1cccc(NC(=O)c2cc(Br)cc(F)c2O)c1 [Compound 346]	28 µM
COc1ccccc1CCOc1cccc(NC(=O)c2cc(-c3ccc4ccccc4c3)ccc2O)c1 [Compound 347]	6 µM
COc1ccccc1CCOc1cccc(NC(=O)c2cc(-c3ccc4c(c3)OCO4)ccc2O)c1 [Compound 348]	17 µM

Structure (SMILES)	EC50
COc1ccccc1CCOc1cccc(NC(=O)c2cc(-c3cccc(Cl)c3)ccc2O)c1 [Compound 349]	10 µM
COc1ccccc1CCOc1cccc(NC(=O)c2cc(-c3ccccc3Cl)ccc2O)c1 [Compound 350]	10 µM
COc1ccccc1CCOc1cccc(NC(=O)c2cc(-c3ccc(Cl)cc3)ccc2O)c1 [Compound 351]	11 µM
COc1ccccc1CCOc1cccc(NC(=O)c2cc(-c3cccc(C(F)(F)F)c3)ccc2O)c1 [Compound 352]	7 µM
COc1ccccc1CCOc1cccc(NC(=O)c2cc(-c3cc4ccccc4s3)ccc2O)c1 [Compound 354]	7.3 µM
COc1ccccc1CCOc1cccc(NC(=O)c2cc(Cl)c(F)cc2O)c1 [Compound 355]	15 µM
COc1ccccc1CCOc1cccc(NC(=O)c2cc(-c3cccs3)ccc2O)c1 [Compound 356]	16 µM
CN1CCN(c2ccc(NC(=O)c3cc(Cl)ccc3O)c(OCCc3cccc(C(F)(F)F)c3)c2)CC1 [Compound 358]	16.3 µM
COC(=O)[C@H]1CCCN1c1ccc(NC(=O)c2cc(Cl)ccc2O)c(OCCc2cccc(C(F)(F)F)c2)c1 [Compound 359]	3.1 µM
CCN(CC)c1ccc(NC(=O)c2cc(Cl)ccc2O)c(OCCc2cccc(C(F)(F)F)c2)c1 [Compound 360]	2.4 µM
CCN(CC)CCN(CC)c1ccc(NC(=O)c2cc(Cl)ccc2O)c(OCCc2cccc(C(F)(F)F)c2)c1 [Compound 361]	8 µM
O=C(Nc1ccc(NCCc2cccc(C(F)(F)F)c2)c(C(F)(F)F)c1)c1cc(Cl)ccc1O [Compound 363]	4 µM
CN(CCc1ccccn1)c1ccc(NC(=O)c2cc(Cl)ccc2O)cc1C(F)(F)F [Compound 364]	7 µM
COCCN(C)c1ccc(NC(=O)c2cc(Cl)ccc2O)cc1C(F)(F)F [Compound 365]	2 µM
COCCN(C)c1ccc(NC(=O)c2cc(Cl)ccc2O)c(OCCc2cccc(C(F)(F)F)c2)c1 [Compound 369]	4 µM
CN(CC(=O)OC(C)(C)C)c1ccc(NC(=O)c2cc(Cl)ccc2O)cc1C(F)(F)F [Compound 372]	2 µM
CN(CC(=O)OC(C)(C)C)c1ccc(NC(=O)c2cc(Cl)ccc2O)c(OCCc2cccc(C(F)(F)F)c2)c1 [Compound 373]	2.9 µM
CN(CC(=O)O)c1ccc(NC(=O)c2cc(Cl)ccc2O)c(OCCc2cccc(C(F)(F)F)c2)c1 [Compound 375]	19 µM
CN(CCc1ccccn1)c1ccc(NC(=O)c2cc(Cl)ccc2O)c(OCCc2cccc(C(F)(F)F)c2)c1 [Compound 376]	7.3 µM
CCN(Cc1ccncc1)c1ccc(NC(=O)c2cc(Cl)ccc2O)c(OCCc2cccc(C(F)(F)F)c2)c1 [Compound 377]	4 µM

same assay, conditions: Homo sapiens; LNCaP cells; flagged "Estimated": based on actual data at different concentrations

Structure (SMILES)	EC50
O=C(Nc1cc(C(F)(F)F)ccc1N1CCCC(C(=O)O)C1)c1cc(Cl)ccc1O (stereo not shown) [Compound 316]	40 µM
COc1cccc(-c2cccc(CNC(=O)c3cc(Cl)ccc3O)c2)c1 [Compound 317]	30 µM
O=C(NCc1cc(C(F)(F)F)ccc1Cl)c1cc(Cl)ccc1O [Compound 318]	40 µM
Cc1cc(C)cc(CNC(=O)c2cc(Cl)ccc2O)c1 [Compound 323]	30 µM
COc1ccccc1CCOc1cccc(NC(=O)c2cccc(F)c2O)c1 [Compound 353]	25 µM
